Reference: publication PMC5610941 (Journal of molecular biology, 2017)

Biological target: HtpG (Escherichia coli, UniProt P0A6Z3)
Experiment: SAXS radius of gyration titration, closed-state accumulation
Format: binding

Sequence of HtpG (P0A6Z3 whole entry): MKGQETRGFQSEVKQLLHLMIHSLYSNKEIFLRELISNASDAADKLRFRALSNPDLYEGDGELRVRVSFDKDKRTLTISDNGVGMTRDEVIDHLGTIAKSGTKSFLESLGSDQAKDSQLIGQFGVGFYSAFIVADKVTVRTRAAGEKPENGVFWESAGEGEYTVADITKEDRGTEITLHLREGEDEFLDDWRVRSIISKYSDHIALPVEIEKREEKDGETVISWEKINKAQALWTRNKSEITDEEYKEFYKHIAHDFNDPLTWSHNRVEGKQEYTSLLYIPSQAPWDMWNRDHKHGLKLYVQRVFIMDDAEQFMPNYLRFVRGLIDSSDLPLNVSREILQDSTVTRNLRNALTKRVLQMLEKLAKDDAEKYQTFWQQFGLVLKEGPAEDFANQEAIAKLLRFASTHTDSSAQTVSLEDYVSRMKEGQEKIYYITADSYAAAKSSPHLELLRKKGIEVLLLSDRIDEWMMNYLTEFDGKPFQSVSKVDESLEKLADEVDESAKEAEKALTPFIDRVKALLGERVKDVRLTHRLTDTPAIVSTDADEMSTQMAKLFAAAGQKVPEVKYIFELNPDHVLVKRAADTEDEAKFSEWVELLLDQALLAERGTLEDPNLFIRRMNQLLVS

- Kd: 12 to 15 µM
Compound: Nc1ncnc2c1ncn2[C@@H]1O[C@H](COP(=O)(O)OP(=O)(O)NP(=O)(O)O)[C@@H](O)[C@H]1O [AMPPNP]
